Test results as given in US10590143B2, “Herbicidally active (alkynyl-phenyl)-substituted cyclic dione compounds and derivatives thereof” (Syngenta Limited, priority 2013, dated 2020).
Where two headings read alike, the source gives them in different places.

Key:
Assay in all cases: Biological Example 1 glasshouse assay for herbicidal activity
Type in all cases: in vivo
[1] = system: Abutilon theophrasti (ABUTH); details: 312 h, 13 days after application, read-out: percentage phytotoxicity ABUTH
Experimental: (§1) Seeds of a variety of test plant species were sown in standard soil** in pots. After cultivation for one day (pre-emergence) or after 8 days cultivation (post-emergence) under controlled conditions in a glasshouse (at 24/16° C., day/night; 14 hours light; 65% humidity), the plants were sprayed with an aqueous spray solution derived from the formulation of the technical active ingredient (the test herbicide) in acetone/water (50:50) solution containing 0.5% Tween 20 (polyoxyethylene sorbitan monolaurate, CAS Reg. No. 9005-64-5). The test plants were then grown on under controlled conditions in a glasshouse (at 24/16° C., day/night; 14 hours light; 65% humidity) and watered twice daily. 13 Days after application of the test herbicide, for pre- and post-emergence, the test was evaluated visually for percentage phytotoxicity to each plant (where 100%=total damage to plant; 0%=no damage to plant). Generally, each test herbicide is only tested on 1 plant per plant species for each application rate tested and for each application timing. **The “standard soil” in Biological Example 1 is usually a “sand” or “sandy loam” type of soil.
(§2) Dicotyledonous weeds: ABUTH=Abutilon theophrasti; AMARE=Amaranthus retroflexus. Grassy monocotyledonous weeds: SETFA=Setaria faberi; ALOMY=Alopecurus myosuroides; ECHCG=Echinochloa crus-galli; ZEAMX=Zea mays (corn, maize, e.g. volunteer corn).

[2] = system: Alopecurus myosuroides (ALOMY); details: 312 h, 13 days after application, read-out: percentage phytotoxicity ALOMY
Experimental: as §1, §2

[3] = system: Amaranthus retroflexus (AMARE); details: Amaranthus retroflexus, 312 h, 13 days after application, read-out: percentage phytotoxicity AMARE
Experimental: as §1, §2

[4] = system: Echinochloa crus-galli (ECHCG); details: Echinochloa crus-galli, 312 h, 13 days after application, read-out: percentage phytotoxicity ECHCG
Experimental: as §1, §2

[5] = system: Setaria faberi (SETFA); details: 312 h, 13 days after application, read-out: percentage phytotoxicity SETFA
Experimental: as §1, §2

[6] = system: Zea mays (ZEAMX, corn, maize, e.g. volunteer corn); details: Zea mays, 312 h, 13 days after application, read-out: percentage phytotoxicity ZEAMX
Experimental: as §1, §2

Row | Compound | pest or weed control at 250 g/ha ([1]; post-emergence, post-emergence) [%] | pest or weed control at 250 g/ha ([2]; post-emergence) [%] | pest or weed control at 250 g/ha ([3]; post-emergence, post-emergence) [%] | pest or weed control at 250 g/ha ([4]; post-emergence, post-emergence) [%] | pest or weed control at 250 g/ha ([5]; post-emergence, post-emergence) [%] | pest or weed control at 250 g/ha ([6]; post-emergence, post-emergence) [%] | pest or weed control at 30 g/ha ([1]; post-emergence, post-emergence) [%] | pest or weed control at 30 g/ha ([1]; pre-emergence, pre-emergence) [%] | pest or weed control at 250 g/ha ([1]; pre-emergence, pre-emergence) [%] | pest or weed control at 30 g/ha ([2]; post-emergence) [%] | pest or weed control at 30 g/ha ([2]; pre-emergence) [%] | pest or weed control at 250 g/ha ([2]; pre-emergence) [%] | pest or weed control at 30 g/ha ([3]; post-emergence, post-emergence) [%] | pest or weed control at 30 g/ha ([3]; pre-emergence, pre-emergence) [%] | pest or weed control at 250 g/ha ([3]; pre-emergence, pre-emergence) [%] | pest or weed control at 30 g/ha ([4]; post-emergence, post-emergence) [%] | pest or weed control at 30 g/ha ([4]; pre-emergence, pre-emergence) [%] | pest or weed control at 250 g/ha ([4]; pre-emergence, pre-emergence) [%] | pest or weed control at 30 g/ha ([5]; post-emergence, post-emergence) [%] | pest or weed control at 30 g/ha ([5]; pre-emergence, pre-emergence) [%] | other results
1 | CC#Cc1cc(F)c(C2C(=O)C3CCC(C)(C2=O)C3(C)C)c(OCC(F)(F)F)c1 (stereo not drawn) [Compound A9] | 0 | 10 | 0 | 10 | 20 | 20 |  |  |  |  |  |  |  |  |  |  |  |  |  |  | 
2 | C#Cc1cc(F)c(C2C(=O)C3CCC(C3)C2=O)c(OC)c1 (stereo not drawn) [Compound B1] | 70 | 80 | 20 | 100 | 90 | 100 | 50 | 20 | 0 | 20 | 10 | 90 | 0 | 50 | 30 | 70 | 50 | 90 | 70 | 60 | pest or weed control at 8 g/ha ([1]; post-emergence, post-emergence): 50%; pest or weed control at 8 g/ha ([1]; pre-emergence, pre-emergence): 10%; pest or weed control at 8 g/ha ([2]; post-emergence): 0%; pest or weed control at 8 g/ha ([2]; pre-emergence): 0%; pest or weed control at 8 g/ha ([3]; post-emergence, post-emergence): 0%; pest or weed control at 8 g/ha ([3]; pre-emergence, pre-emergence): 30%; pest or weed control at 8 g/ha ([4]; post-emergence, post-emergence): 20%; pest or weed control at 8 g/ha ([4]; pre-emergence, pre-emergence): 50%; pest or weed control at 8 g/ha ([5]; post-emergence, post-emergence): 70%; pest or weed control at 8 g/ha ([5]; pre-emergence, pre-emergence): 40%; pest or weed control at 250 g/ha ([5]; pre-emergence, pre-emergence): 100%; pest or weed control at 8 g/ha ([6]; post-emergence, post-emergence): 80%; pest or weed control at 30 g/ha ([6]; post-emergence, post-emergence): 90%; pest or weed control at 8 g/ha ([6]; pre-emergence, pre-emergence): 0%; pest or weed control at 30 g/ha ([6]; pre-emergence, pre-emergence): 70%; pest or weed control at 250 g/ha ([6]; pre-emergence, pre-emergence): 100%
3 | CC#Cc1cc(F)c(C2C(=O)C3CCC(C)(C2=O)C3(C)C)c(OCCOC)c1 (stereo not drawn) [Compound A10] | 0 | 0 | 0 | 0 | 0 | 40 |  |  |  |  |  |  |  |  |  |  |  |  |  |  | 
4 | CC#Cc1cc(F)c(C2=C(OC(=O)OCC)C3CCC(C3)C2=O)c(OC)c1 (stereo not drawn) [Compound P2] | 80 | 90 | 40 | 100 | 100 | 100 | 30 | 20 | 60 | 90 | 80 | 100 | 20 | 40 | 70 | 100 | 80 | 100 | 90 | 50 | pest or weed control at 8 g/ha ([1]; post-emergence, post-emergence): 10%; pest or weed control at 8 g/ha ([2]; post-emergence): 70%; pest or weed control at 8 g/ha ([3]; post-emergence, post-emergence): 20%; pest or weed control at 8 g/ha ([4]; post-emergence, post-emergence): 90%; pest or weed control at 8 g/ha ([5]; post-emergence, post-emergence): 60%; pest or weed control at 250 g/ha ([5]; pre-emergence, pre-emergence): 90%; pest or weed control at 8 g/ha ([6]; post-emergence, post-emergence): 90%; pest or weed control at 30 g/ha ([6]; post-emergence, post-emergence): 100%; pest or weed control at 30 g/ha ([6]; pre-emergence, pre-emergence): 90%; pest or weed control at 250 g/ha ([6]; pre-emergence, pre-emergence): 100%
5 | CC#Cc1cc(F)c(C2C(=O)C3CCC(C3)C2=O)c(OCC)c1 (stereo not drawn) [Compound A4] | 30 | 90 | 50 | 100 | 100 | 100 | 10 | 20 | 30 | 80 | 70 | 90 | 20 | 40 | 50 | 90 | 90 | 100 | 70 | 50 | pest or weed control at 250 g/ha ([5]; pre-emergence, pre-emergence): 70%; pest or weed control at 30 g/ha ([6]; post-emergence, post-emergence): 100%; pest or weed control at 30 g/ha ([6]; pre-emergence, pre-emergence): 80%; pest or weed control at 250 g/ha ([6]; pre-emergence, pre-emergence): 100%
